How the values were obtained:
[1] = tested on: PBMCs co-cultured with Skov3; assay: Activation of T-cells from healthy donors by FolR1-TCB (PBMC co-cultured with Skov3); format: cell-based, human; settings: 0.6 pM to 2 nM, 24 h
Protocol: FIGS. 40A-C show activation of CD8^+ T-cells upon exposure to increasing concentrations of FolR1-TCB. PBMCs were co-cultured with Skov3 cells for 24 h in the presence or absence of FolR1-TCB or the unspecific control DP-47-TCB. […] Shaded histogram: isotype control; open histogram: anti-FolR1-antibody. FIG. 40B: The expression of the activation markers CD25, CD137, and ICOS on CD8^+ T-cells was determined by flow cytometry. FIG. 40C: IFN-v.
To assess the effect of FolR1-TCB on T-cell activation peripheral blood mononuclear cells (PBMCs) from healthy donors were co-cultured with the FolR1^+ ovarian cancer cell line Skov3 (FIG. 40A). […] In addition, T-cells secreted IL-2, IFN-γ, and TNF.

[2] = tested on: T cells in FolR1 positive tumor digests or malignant effusions; assay: Ex vivo treatment of tumor samples with FolR1-TCB (T cell activation and effector function); format: cell-based, human; settings: 24 h
Protocol: FolR1 positive tumor digests or malignant effusions were thawed, washed and plated in 96-well flat bottom cell culture plates (BD Falcon) with a density of […] cells/200 μl/well in complete medium (DMEM+Sodium Pyruvate (1 mM)+MEM non essential AA (1×)+L-Glutamin (2 mM)+Penicillin/Streptomycin ([…])+2-Mercaptoethanol (50 nM)+Ciproxin (1 mg/ml)+10% human Serum). The samples were cultured in the presence or absence of FolR1-TCB or DP47 TCB at a concentration of 2 nM for 24 h. Activation of CD8^+ and CD4^+ T cells (CD45^+CD3^+) upon FolR1-TCB treatment was determined by multicolor flow cytometry by measuring the expression of the cell surface markers CD25, CD69, CD137, ICOS, PD-1 and Tim-3. Furthermore the expression of granzyme B and IFN-γ was determined by intracellular staining. […]
We analyzed whether the expression of inhibitory receptors could be correlated with a diminished T-cell functionality upon FolR1-TCB treatment.

SKOV3 cells [3] = assay: T cell mediated killing (LDH release); format: cell-based, human; settings: SKOV3 and HT-29 cells, used concentrations
Protocol: FIGS. 7A-L depict graphs summarizing T cell mediated killing of HT-29 and SKOV3 cells. FolR1 TCBs were used to test T cell mediated killing of HT-29 and SKOV3 tumor cells and upregulation of activation marker on T cells upon killing. […] DP47 TCB was included as negative control. After 48 h incubation upregulation of the activation marker CD25 and CD69 on CD8 T cells and CD4 T cells upon killing of SKOV3 (FIGS. 7E-H) or HT-29 (FIG. 7I-L) tumor cells was assessed by flow cytometry.
Overall killing of SKOV3 cells was higher compared to HT-29 which reflects the higher expression levels of FolR1 on SKOV3 cells (FIGS. 7A-D). In line with this, a strong upregulation of the activation marker CD25 and CD69 on CD4^+ T cells and CD8^+ T cells was detected. Activation of T cells was very similar in the presence of SKOV3 cells and HT-29 cells.

SKOV3 cells [4] = assay: Killing assay with tumor samples and CFSE-labelled Skov3 cells; format: cell-based
Protocol: To determine the FolR1-TCB induced tumor cell killing, 3×10^4 CFSE-labelled Skov3 cells were cocultured with tumor samples in the presence or absence of FolR1-TCB at a concentration of 2 nM for 24 h in 96-well flat bottom cell culture plates. The E:T ratio (E: effector CD45+CD3+ cells; T: target FolR1^+ cells from tumor and added Skov3 cells) was adjusted to 1:1 in each well and the cell number of the added tumor samples was calculated for each sample according to prior characterization by flow cytometry. Cell death of Skov3 cells was determined by flow cytometry by measuring activated caspase 3 and the live/dead marker Live/Dead-near-IR. The assay was performed in triplicates. The FolR1-TCB mediated killing was calculated according to the following equation: % of specific killing=100−[(% of Skov3 live cells in FolR1-TCB treated sample/% of Skov3 live cells in untreated sample)×100].
To compare the FolR1-TCB-induced killing capacity of T-cells between tumor samples, and to exclude additional factors suppressing T-cell functionality, such as expression of PD-L1 on the tumor cells, we exogenously added CFSE-labeled FolR1^+ Skov3 cells to the tumor digests and adjusted the E:T ratio to 1:1, essentially as described above. We then measured the FolR1-TCB-induced killing of CFSE-labeled Skov3 cells, which allowed us to also include FolR1^− tumor samples into the analysis. […]

[5] = biological target: T1, FolR1 on Hela, Skov3, OVCAR5, HT29, MKN45 tumor cells (Homo sapiens, UniProt P15328); assay: Binding to tumor cells with different FolR1 expression levels (flow cytometry)
T1 construct: endogenous in cells; host or cells: tumour cell line panel (HeLa, SKOV3, OVCAR5, HT-29; MKN-45 as FolR1-negative line)
T1 sequence (P15328 25-257): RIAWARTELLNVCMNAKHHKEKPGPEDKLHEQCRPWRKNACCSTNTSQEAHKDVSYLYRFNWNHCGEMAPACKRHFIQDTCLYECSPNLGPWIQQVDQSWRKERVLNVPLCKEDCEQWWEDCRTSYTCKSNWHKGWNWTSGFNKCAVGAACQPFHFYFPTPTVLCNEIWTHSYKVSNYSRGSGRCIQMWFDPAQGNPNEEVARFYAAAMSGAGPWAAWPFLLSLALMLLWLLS
Description: FIGS. 6A-E depict graphs summarizing binding of FolR1 IgGs to cells with different FolR1 expression levels. […] DP47 IgG was included as isotype control and MKN-45 were included as FolR1 negative cell line.
The FolR1 TCBs were used to determine T cell mediated killing of tumor cells expressing FoLR1. A panel of potential target cell lines was used to determine FoLR1 binding sites by Qifikit analysis.
The used panel of tumor cells contains FolR1 high, intermediate and low expressing tumor cells and a FolR1 negative cell line.
The amount of bound construct is proportional to the FolR1 expression level and there is still good binding of the constructs to the FolR1 low cell line HT-29 detectable. […] DP47 TCB is an untargeted TCB and was prepared as described in WO2014/131712.

[6] = tested on: CD4+ and CD8+ T cells in whole blood; assay: T cell activation in whole blood; format: cell-based, human; settings: 24 h after addition
Description: FIGS. 9A-D depict graphs summarizing activation marker upregulation in whole blood.
DP47 TCB was included as negative control.

[7] = tested on: T cells in EpCAM positive tumor digests or malignant effusions; assay: Ex vivo treatment of tumor samples with catumaxomab; format: cell-based, human; settings: 4 NSCLC tumor digests, 10 ng/ml, 24 h
Protocol: The trifunctional TCB catumaxomab (Removab®) was obtained from Fresenius. The experimental conditions were similar as indicated above for FolR1-TCB. Briefly, EpCAM positive tumor digests or malignant effusions were cultured in the presence or absence of catumaxomab at a concentration of 10 ng/ml for 24 h. Analysis of CD8^+ and CD4^+ positive T cells (CD45+CD3+) was performed as described above.
To determine to which extent catumaxomab induces T cell activation and to confirm the findings described above using a second, independent T cell bispecific molecule, 4 tumor digests from patients with NSCLC were exposed to catumaxomab, a trifunctional bispecific antibody recognizing CD3 on T cells and EpCAM on tumor cells. Then, T cells were characterized by flow cytometry for expression of activation markers and T cell effector functions (FIG. 17A-D). […] Accordingly, the baseline expression of inhibitory receptors differed between the patients (FIG. 17E-H).

[8] = tested on: T cells in FolR1+ tumor digests or malignant effusions; assay: FolR1-TCB with PD-1 blockade in tumor digests or malignant effusions (cytokine secretion); format: cell-based, human; settings: combined with FolR1-TCB
Protocol: FIG. 38A-D: FolR1^+ tumor digests or malignant effusions were cultured for 24 h with FolR1-TCB in the presence or absence of a PD-1 blocking antibody. […] The increase in cytokine secretion upon combined FolR1-TCB and anti-PD-1 treatment compared with FolR1-TCB alone was determined in PD-1^hi scarce and abundant tumors. FIG. 38E: Tumor digests or malignant effusions were co-cultured with exogenously added fluorescently labeled Skov3 cells at an E:T ratio of 1:1 for 24 h in the presence or absence of a PD-1 blocking antibody and FolR1-TCB. The increase in specific killing by the anti-PD-1 antibody was compared in PD-1^hi scarce and abundant tumors. p-values were calculated using the unpaired Mann-Whitney test.
As the level of PD-1 expression on TILs correlates with the efficacy of FolR1-TCB, we analyzed whether blockade of the PD-1/PD-L1 axis in combination with FolR1-TCB treatment might be able to restore T-cell function.

T cells in tumor digests = assay: Polyclonal stimulation with anti-CD3/CD28 antibodies and PD-1 blockade; format: cell-based, human; settings: 10 μg/ml, 24 hrs

Which “T-cell activation (CD25, CD137, ICOS)” value [1] does the source give for “DP47 TCB: untargeted TCB, negative control, prepared as described in WO2014/131712” here?
Its value is “did not induce any T-cell activation”.

And the T cell activation [2]?
The T cell activation was “did not induce any T cell activation”.

And the “induction of tumor cell killing” value (SKOV3 cells [3])?
Its value is “does not induce any killing”.

And the tumor cell killing (SKOV3 cells [4]; E:T 1:1, 24 h)?
Its tumor cell killing is “did not induce any tumor cell killing”.

And the “binding to panel of tumor cell lines” value [5]?
The value was “no binding”.

With “Mov19 TCB: reference FolR1/CD3 T-cell bispecific with Mov19 binder [reference compound]” as the substance, how does the “upregulation of CD25 and CD69 on CD4+ and CD8+ T cells in whole blood” value [6] read?
Its value is “No activation of T cells”.

Which “catumaxomab induced T cell activation” value [7] does the source give for catumaxomab here?
The value was “striking heterogeneity”.

Which “cytotoxic tumor cell killing upon additional PD-1 blockade” value (SKOV3 cells [4]; combined with FolR1-TCB, PD-1hi scarce and abundant tumors) does the source give for nivolumab: PD-1 blocking antibody here?
Its value is “could neither be improved”.

And the “secretion of IFN-γ, TNF, IL-2 and perforin upon PD-1 blockade” value ([8]; PD-1hi abundant tumors)?
Its value is “failed to elicit any response”.

And the “secretion of IFN-γ, TNF, IL-2 and perforin upon PD-1 blockade” value ([8]; PD-1hi scarce tumors)?
The value was “could be increased only in some of the PD-hi scarce tumors”.

And the “restoration of T cell effector function (IL-2, IFN-γ, TNF-α)” value (T cells in tumor digests)?
Its value is “only in some patients”.

Source: patent US11613587B2, “Combination therapy of T cell activating bispecific antigen binding molecules and PD-1 axis binding antagonists” (Hoffmann-La Roche Inc., priority 2014, dated 2023)
